molecular target: T1, cytoplasmic kinase domain of human Flt-3 (Homo sapiens, UniProt P36888); test: Flt3 kinase inhibition, GST-Flt-3 filter binding assay; assay type: biochemical; settings: % inhibition at 10 μM
T1 construct: amino acids 563-993 of the cytoplasmic kinase domain of human Flt-3; made in house; host or cells: Sf9 insect cells (baculovirus, donor vector pFbacG01)
T1 sequence (P36888 563-993): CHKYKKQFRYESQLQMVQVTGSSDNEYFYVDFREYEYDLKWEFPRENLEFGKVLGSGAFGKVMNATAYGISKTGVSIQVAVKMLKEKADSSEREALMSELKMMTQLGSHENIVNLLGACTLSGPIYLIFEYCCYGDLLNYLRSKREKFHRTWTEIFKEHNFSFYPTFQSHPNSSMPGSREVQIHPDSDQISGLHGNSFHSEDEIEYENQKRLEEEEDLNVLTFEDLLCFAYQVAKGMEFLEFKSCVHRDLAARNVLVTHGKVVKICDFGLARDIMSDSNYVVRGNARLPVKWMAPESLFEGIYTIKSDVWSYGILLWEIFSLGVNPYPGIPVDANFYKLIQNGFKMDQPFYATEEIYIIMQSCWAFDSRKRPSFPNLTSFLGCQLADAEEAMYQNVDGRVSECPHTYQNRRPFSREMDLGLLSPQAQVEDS
Experimental: Flt3 kinase inhibition is determined as follows: The baculovirus donor vector pFbacG01 (GIBCO) is used to generate a recombinant baculovirus expressing the amino acid region amino acids 563-993 of the cytoplasmic kinase domain of human Flt-3. The coding sequence for the cytoplasmic domain of Flt-3 is amplified by PCR from human c-DNA libraries (Clontech). The amplified DNA fragments and the pFbacG01 vector are made compatible for ligation by digestion with BamH1 and HindIII. Ligation of these DNA fragments results in the baculovirus donor plasmid Flt-3(1.1). The production of the viruses, the expression of proteins in Sf9 cells and the purification of the GST-fused proteins are performed as follows:
Production of virus: Transfer vector (pFbacG01-Flt-3) containing the Flt-3 kinase domain is transfected into the DH10Bac cell line (GIBCO) and the transfected cells are plated on selective agar plates. Colonies without insertion of the fusion sequence into the viral genome (carried by the bacteria) are blue. Single white colonies are picked and viral DNA (bacmid) is isolated from the bacteria by standard plasmid purification procedures. Sf9 or Sf21 cells (American Type Culture Collection) are then transfected in flasks with the viral DNA using Cellfectin reagent. Determination of small scale protein expression in Sf9 cells: Virus containing media is collected from the transfected cell culture and used for infection to increase its titre. Virus containing media obtained after two rounds of infection is used for large-scale protein expression. For large-scale protein expression 100 cm^2 round tissue culture plates are seeded with 5×10^7 cells/plate and infected with 1 mL of virus-containing media (approx. 5 MOIs). After 3 days the cells are scraped off the plate and centrifuged at 500 rpm for 5 min. Cell pellets from 10-20, 100 cm^2 plates, are resuspended in 50 mL of ice-cold lysis buffer (25 mMTris-HCl, pH 7.5, 2 mM EDTA, 1% NP-40, 1 mM DTT, 1 mM PMSF). The cells are stirred on ice for 15 min and then centrifuged at 5000 rpms for 20 min. Purification of GST-tagged proteins: The centrifuged cell lysate is loaded onto a 2 mL glutathione-sepharose column (Pharmacia) and washed three times with 10 mL of 25 mM Tris-HCl, pH 7.5, 2 mM EDTA, 1 mM DTT, 200 mM NaCl. The GST-tagged protein is then eluted by 10 applications (1 mL each) of 25 mM Tris-HCl, pH 7.5, 10 mM reduced-glutathione, 100 mM NaCl, 1 mM DTT, 10% Glycerol and stored at −70° C. Measurement of enzyme activity: Tyrosine protein kinase assays with purified GST-Flt-3 are carried out in a final volume of 30 μL containing 200-1800 ng of enzyme protein (depending on the specific activity), 20 mM Tris-HCl, pH 7.6, 3 mM MnCl2, 3 mM MgCl2, 1 mM DTT, 10 μM Na3VO4, 3 μg/mL poly(Glu,Tyr) 4:1, 1% DMSO, 8.0 μM ATP and 0.1 μCi [γ^33 P] ATP). The activity is assayed in the presence or absence of inhibitors, by measuring the incorporation of ^33P from [γ^33P] ATP into the poly(Glu,Tyr) substrate. The assay (30 μL) is carried out in 96-well plates at ambient temperature for 20 min under conditions described below and terminated by the addition of 20 μL of 125 mM EDTA. Subsequently, 40 μL of the reaction mixture is transferred onto Immobilon-PVDF membrane (Millipore, Bedford, Mass., USA) previously soaked for 5 min with methanol, rinsed with water, then soaked for 5 min with 0.5% H3PO4 and mounted on vacuum manifold with disconnected vacuum source. After spotting all samples, vacuum is connected and each well rinsed with 200 μL 0.5% H3PO4. Membranes are removed and washed 4× on a shaker with 1.0% H3PO4, once with ethanol. Membranes are counted after drying at ambient temperature, mounting in Packard TopCount 96-well frame, and addition of 10 μL/well of Microscint™ (Packard). IC50 values are calculated by linear regression analysis of the percentage inhibition of each compound in duplicate, at four concentrations (usually 0.01, 0.1,1 and 10 μM). […]

Structure (SMILES)	Flt3 (% at 10 μM) [%]
Cc1ccc(NC(=O)Nc2ccc(Oc3ccncc3)cc2)cc1 [Example 4]	98
CCc1ccc(NC(=O)N(C)c2ccc(Oc3ccncc3)cc2)cc1 [Example 5]	64
CN(C(=O)Nc1cccc(C(F)(F)F)c1)c1ccc(Oc2ccncc2)cc1 [Example 6]	87
CCCc1ccc(NC(=O)N(C)c2ccc(Oc3ccncc3)cc2)cc1 [Example 7]	67
Cc1ccc(NC(=O)N(C)c2ccc(Oc3ccncc3)cc2)cc1 [Example 8]	57
O=C(Nc1ccc(Oc2ccncc2)cc1)Nc1ccc(Br)c(C(F)(F)F)c1 [Example 9]	90
O=C(Nc1ccc(Oc2ccncc2)cc1)Nc1ccc(OCC(F)(F)F)c(C(F)(F)F)c1 [Example 10]	100
COc1cc(NC(=O)Nc2ccc(Oc3ccncc3)cc2)cc(C(F)(F)F)c1 [Example 11]	100
CCCc1ccc(NC(=O)Nc2ccc(Cc3ccncc3)cc2)cc1 [Example 12]	92
CCc1ccc(NC(=O)Nc2ccc(Cc3ccncc3)cc2)cc1 [Example 13]	95
Cc1ccc(NC(=O)Nc2ccc(Cc3ccncc3)cc2)cc1 [Example 14]	89
O=C(Nc1ccc(Cc2ccncc2)cc1)Nc1cccc(C(F)(F)F)c1 [Example 15]	96
CCc1ccc(NC(=O)Cc2ccc(Oc3ccncc3)cc2)cc1 [Example 16, N-(4-pyridin-4-yl-oxy-phenyl)acetyl-(4-ethyl-phenyl)-amide]	94
Cc1ccc(NC(=O)Cc2ccc(Oc3ccncc3)cc2)cc1 [Example 17]	92
CCCc1ccc(NC(=O)Cc2ccc(Oc3ccncc3)cc2)cc1 [Example 18]	88
O=C(Nc1cccc(C(F)(F)F)c1)N1CCc2cc(Oc3ccncc3)ccc21 [Example 19, 5(4-pyridyloxy)-N-(3-trifluoromethyl-phenyl)amino-carbonyl-2,3-dihydroindole]	63
O=C(Nc1cccc(C(F)(F)F)c1)N1CCCc2cc(Oc3ccncc3)ccc21 [Example 20]	69
O=C(Nc1ccc(Oc2cc(Cl)ncn2)cc1)Nc1cccc(C(F)(F)F)c1 [Example 21, N-(4-(6-Chloropyrimidin-4-yl)-oxyphenyl)-N′-(3-trifluoromethylphenyl)-urea]	94
Cc1cc(Oc2ccc(NC(=O)Nc3cccc(C(F)(F)F)c3)cc2)ccn1 [Example 30]	100
O=C(Nc1ccc(Oc2cc(Nc3ccc(O)cc3)ncn2)cc1)Nc1ccc(OCC(F)(F)F)c(C(F)(F)F)c1 [Example 32]	100
